From article PMC10615177 (ACS infectious diseases, 2023)
In brackets after ≈: the same amount, converted by molar mass. Several values for one entry are separate records, joined by “and”; a condition that tells them apart may be missing. Equal values may be shown once. Read-outs that look alike come from different tables or passages of the source.

Legend:
M. smegmatis = M. smegmatis cell growth inhibition; assay type: cell-based, Mycobacterium smegmatis
M. tuberculosis HN878 = M. tuberculosis HN878 growth inhibition; assay type: cell-based, Mycobacterium tuberculosis; details: for Mtb HN878 MIC: visual inspection
M. tuberculosis Erdman = M. tuberculosis Erdman growth inhibition; assay type: cell-based, Mycobacterium tuberculosis
M. tuberculosis H37Rv = M. tuberculosis H37Rv growth inhibition; assay type: cell-based, Mycobacterium tuberculosis
[1] = system: M. abscessus smooth variant; assay: microbe, parasite or virus in culture; assay type: cell-based
[2] = system: M. abscessus rough variant; assay: microbe, parasite or virus in culture; assay type: cell-based
Bacillus subtilis = assay: B. subtilis growth inhibition; assay type: cell-based; details: read-out: Bs IC50
E. coli = E. coli growth inhibition; assay type: cell-based, Escherichia coli; details: read-out: Ec IC50
[3] = system: T. brucei bloodstream forms; assay: T. brucei bloodstream form growth inhibition; assay type: cell-based, Trypanosoma brucei; details: read-out: T. brucei IC50
[4] = system: T. cruzi Dm28c epimastigotes; assay: T. cruzi epimastigote growth inhibition; assay type: cell-based, Trypanosoma cruzi; details: read-out: T. cruzi IC50 (EPI)
[5] = system: T. cruzi Dm28c intracellular amastigotes; assay: T. cruzi intracellular amastigote inhibition; assay type: cell-based, Trypanosoma cruzi; details: read-out: T. cruzi IC50 (PAR)
[6] = system: L. donovani promastigotes; assay: L. donovani promastigote growth inhibition; assay type: cell-based, Leishmania donovani; details: read-out: L. donovani IC50
[7] = system: Plasmodium falciparum asexual blood stages; assay: P. falciparum asexual blood stage; assay type: cell-based
[8] = target: M. tuberculosis MmpL3 (MtMmpL3) (Mycobacterium tuberculosis, UniProt P9WJV5); assay: Surface plasmon resonance binding to MmpL3
Sequence of M. tuberculosis MmpL3 (MtMmpL3) (P9WJV5 whole entry): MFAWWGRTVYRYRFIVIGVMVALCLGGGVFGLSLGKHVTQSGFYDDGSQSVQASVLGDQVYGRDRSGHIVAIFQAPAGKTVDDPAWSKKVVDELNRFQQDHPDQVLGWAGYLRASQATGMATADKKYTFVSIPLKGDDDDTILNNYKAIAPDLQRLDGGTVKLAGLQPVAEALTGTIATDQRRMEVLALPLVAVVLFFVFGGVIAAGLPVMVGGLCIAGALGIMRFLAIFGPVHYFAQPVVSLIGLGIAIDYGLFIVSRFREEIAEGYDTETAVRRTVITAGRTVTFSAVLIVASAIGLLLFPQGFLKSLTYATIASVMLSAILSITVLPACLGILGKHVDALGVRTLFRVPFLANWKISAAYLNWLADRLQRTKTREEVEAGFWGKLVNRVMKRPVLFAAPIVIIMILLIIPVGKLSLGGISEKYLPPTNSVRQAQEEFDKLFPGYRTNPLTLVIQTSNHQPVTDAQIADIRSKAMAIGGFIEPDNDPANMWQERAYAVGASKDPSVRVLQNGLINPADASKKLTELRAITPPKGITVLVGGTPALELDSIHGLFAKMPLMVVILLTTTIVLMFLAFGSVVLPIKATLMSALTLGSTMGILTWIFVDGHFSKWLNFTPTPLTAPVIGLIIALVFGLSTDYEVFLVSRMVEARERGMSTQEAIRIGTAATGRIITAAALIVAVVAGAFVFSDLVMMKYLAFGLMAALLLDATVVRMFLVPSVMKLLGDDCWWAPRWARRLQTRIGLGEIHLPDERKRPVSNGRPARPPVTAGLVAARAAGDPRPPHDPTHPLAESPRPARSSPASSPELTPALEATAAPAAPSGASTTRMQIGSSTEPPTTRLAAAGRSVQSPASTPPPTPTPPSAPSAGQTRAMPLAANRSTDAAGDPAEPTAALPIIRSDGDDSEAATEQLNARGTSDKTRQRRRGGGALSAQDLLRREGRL

[9] = DSC of DMPC bilayers with inhibitor; assay type: physicochemical; details: for Tm (main transition) / ΔH / ΔT1/2: 10 wt % inhibitor, PBS pH 7.4, heating
[10] = DSC of DSPG bilayers with inhibitor; assay type: physicochemical; details: for Tm (main transition) / ΔH / ΔT1/2: 10 wt % inhibitor, PBS pH 7.4, heating; for Broadening of main transition peak ΔΤ1/2 compared to pure DSPG / Decrease of Tm compared to DSPG alone: heating
in vitro [11] = details: human
in vitro [12] = details: human; remark: listed apart in the source
[13] = system: L. mexicana promastigotes; assay: L. mexicana promastigote growth inhibition; assay type: cell-based, Leishmania mexicana; details: for IC50: read-out: L. mexicana IC50, promastigotes
[14] = system: HepG2 (human hepatocellular carcinoma) cells; assay: HepG2 cell line viability; details: 20 μM
U2OS host cells = assay: U2OS host cell growth inhibition; details: read-out: T. cruzi CC50 (U20S)
[15] = read-out: Mtb HN878 IC50, dose-response curves
[16] = read-out: Ms IC50, M. smegmatis
[17] = intracellular amastigotes in U2OS host cells
[18] = read-out: PfABS IC50 (μM ± S.E.), asexual blood stages
[19] = read-out: KD, 1:1 model, 1:1 binding model, from ratio of rate constants
[20] = read-out: KD, 2-state, two-state model, from rate constants

## CCC1(NCCNCC=C(C)CCC=C(C)C)C2CC3CC(C2)CC1C3 (centres unmarked) [Compound 8c, N-(3,7-dimethylocta-2,6-dien-1-yl)-N′-(2-ethyladamantan-2-yl)ethane-1,2-diamine]
M. smegmatis; Mycolicibacterium smegmatis, read-out: Ms IC50, M. smegmatis
  IC50: 4 µM
M. tuberculosis HN878; Mycobacterium tuberculosis, HN878, read-out: Mtb HN878 IC50, dose-response curves
  IC50: 2000 to 3000 nM
M. tuberculosis HN878; Mycobacterium tuberculosis, HN878, read-out: Mtb HN878 MIC
  MIC: 1.6 µM (≈ 0.574 µg/mL)
M. tuberculosis HN878; [15]
  IC50: 1900 ± 60 nM
M. tuberculosis Erdman; Mycobacterium tuberculosis, ERDMAN, read-out: Mtb Erdman MIC
  MIC: 6.8 µM (≈ 2.44 µg/mL)
M. tuberculosis H37Rv; Mycobacterium tuberculosis, H37RV, read-out: Mtb H37Rv MIC
  MIC: 6.8 µM (≈ 2.44 µg/mL)
[1]; Mycobacteroides abscessus, read-out: Ma(S) MIC
  MIC: 22 µM (≈ 7.89 µg/mL)
[2]; Mycobacteroides abscessus, read-out: Ma(R) MIC
  MIC: 10.7 µM (≈ 3.84 µg/mL)
Bacillus subtilis; Bacillus subtilis
  IC50: 4300 nM
E. coli; Escherichia coli
  IC50: 18 µM
[3]; Trypanosoma brucei
  IC50: 1400 ± 200 nM
[4]; Trypanosoma cruzi
  IC50: 8 ± 2 µM
[5]; Trypanosoma cruzi, U2OS
  IC50: 1300 ± 60 nM
[6]; Leishmania donovani
  IC50: 2100 ± 400 nM
[7]; Plasmodium falciparum, read-out: PfABS IC50 (μM ± S.E.), asexual blood stages
  IC50: 0.16 ± 0.07 µM
[7]; versus SQ109 1.6 μM
  Increased potency against PfABS compared to SQ109: ~ 10 fold
[8]
  koff: 0.841 s⁻¹
  kon: 4710 M⁻¹ s⁻¹
[8]; KD, 1:1 model, 1:1 binding model, from ratio of rate constants
  Kd: 180 µM
[8]; KD, 2-state, two-state model, from rate constants
  Kd: 190 µM
[8]; two-state model
  ka1: 5473 M⁻¹ s⁻¹
  ka2: 0.006994 s⁻¹
  kd1: 1.284 s⁻¹
  kd2: 0.03012 s⁻¹
[9]
  Tm (main transition): 16.9 °C
  ΔH: 24.0 kJ/mol
  ΔT1/2: 2.0 °C
[9]; heating
  Decrease of Tm compared to DMPC without inhibitor: ~6.6 °C
[10]
  Tm (main transition): 51.9 °C
  ΔH: 49.9 kJ/mol
  ΔT1/2: 2.5 °C
  Broadening of main transition peak ΔΤ1/2 compared to pure DSPG: 0.2–1.6 °C
In vitro [11]
  CC50: 2500 ± 300 nM
In vitro [12]
  viability at 2 µM: 85%
  viability at 20 µM: 43%

## CC(C)=CCCC(C)=CCNCCNC(C)(C)C12CC3CC(CC(C3)C1)C2 [Compound 12, N-(3,7-dimethylocta-2,6-dien-1-yl)-N´-(2-(adamantan-1-yl)propan-2-yl)ethane-1,2-diamine]
M. smegmatis; [16]
  IC50: 15 ± 2 µM
M. tuberculosis HN878; [15]
  IC50: 3400 ± 600 nM
M. tuberculosis HN878
  Mtb HN878 MIC: 3 µM
M. tuberculosis Erdman
  Mtb Erdman MIC: 13 µM
M. tuberculosis H37Rv
  Mtb H37Rv MIC: 13 µM
[1]
  Ma(S) MIC: 12.9 µM
[2]
  Ma(R) MIC: 12.9 µM
E. coli
  IC50: 8.9 µM
[3]; bloodstream forms
  IC50: 1400 ± 30 nM
[4]; epimastigotes
  IC50: 2.4 ± 0.7 µM
[5]; [17]
  IC50: 560 ± 900 nM
[6]; promastigotes
  IC50: 2300 ± 100 nM
[13]
  IC50: 4700 ± 200 nM
[7]; [18]
  IC50: 0.77 ± 0.1 µM
[8]; 1:1 Langmuir binding model
  koff: 0.6646 s⁻¹
[8]; [19]
  Kd: 106 µM
[8]; [20]
  Kd: 120 µM
[8]; two-state model
  ka1: 7245 M⁻¹ s⁻¹
  ka2: 0.007539 s⁻¹
  kd1: 1.05 s⁻¹
  kd2: 0.03558 s⁻¹
[9]
  Tm (main transition): 19.8 °C
  ΔH: 17.8 kJ/mol
  ΔT1/2: 4.1 °C
[9]; heating
  Decrease of Tm compared to DMPC without inhibitor: 3–4 °C
[10]
  Tm (main transition): 49.8 °C
  ΔH: 55.8 kJ/mol
  ΔT1/2: 2.4 °C
  Broadening of main transition peak ΔΤ1/2 compared to pure DSPG: 0.2–1.6 °C
  Decrease of Tm compared to DSPG alone: 3–4 °C
[14]
  HepG2 % viability @ 20 μM: 100%
U2OS host cells
  CC50: 1400 ± 200 nM

## CCCCCCC1(NCCNCC=C(C)CCC=C(C)C)C2CC3CC(C2)CC1C3 (centres unmarked) [Compound 8f, N-(3,7-dimethylocta-2,6-dien-1-yl)-N´-(2-hexyladamantan-2-yl)ethane-1,2-diamine]
M. smegmatis; [16]
  IC50: 4.7 µM
M. tuberculosis HN878; [15]
  IC50: 3400 ± 600 nM
M. tuberculosis HN878
  Mtb HN878 MIC: 3 µM
M. tuberculosis Erdman
  Mtb Erdman MIC: 12 µM
M. tuberculosis H37Rv
  Mtb H37Rv MIC: 12 µM
[1]
  Ma(S) MIC: 12 µM
[2]
  Ma(R) MIC: 12 µM
Bacillus subtilis
  IC50: 1000 nM
E. coli
  IC50: 9.2 µM
[3]; bloodstream forms
  IC50: 980 ± 90 nM
[4]; epimastigotes
  IC50: 8.2 ± 0.4 µM
[5]; [17]
  IC50: 1300 ± 70 nM
[6]; promastigotes
  IC50: 8800 ± 400 nM
[8]; 1:1 Langmuir binding model
  koff: 0.2964 s⁻¹
[8]; [19]
  Kd: 67 µM
[8]; [20]
  Kd: 81 µM
[8]; two-state model
  ka1: 4642 M⁻¹ s⁻¹
  ka2: 0.008637 s⁻¹
  kd1: 0.4552 s⁻¹
  kd2: 0.03992 s⁻¹
[9]
  Tm (main transition): 13.8 °C
  ΔH: 24.6 kJ/mol
  ΔT1/2: 5.1 °C
[9]; heating
  Broadening of main transition peak ΔΤ1/2 compared to pure DMPC: 4.4 °C
  Decrease of Tm compared to DMPC without inhibitor: ~9.7 °C
[10]
  Tm (main transition): 49.1 °C
  ΔH: 36.6 kJ/mol
  ΔT1/2: 1.7 °C
  Broadening of main transition peak ΔΤ1/2 compared to pure DSPG: 0.2–1.6 °C
  Decrease of Tm compared to DSPG alone: ~ 5 °C
U2OS host cells
  CC50: 4100 ± 1000 nM

## CCCC1(NCCNCC=C(C)CCC=C(C)C)C2CC3CC(C2)CC1C3 (centres unmarked) [Compound 8d, N-(3,7-dimethylocta-2,6-dien-1-yl)-N´-(2-propyladamantan-2-yl)ethane-1,2-diamine]
M. smegmatis; [16]
  IC50: 4.3 ± 0.8 µM
M. tuberculosis HN878; [15]
  IC50: 2600 ± 1000 nM
M. tuberculosis HN878
  Mtb HN878 MIC: 3 µM
M. tuberculosis Erdman
  Mtb Erdman MIC: 13 µM
M. tuberculosis H37Rv
  Mtb H37Rv MIC: 13 µM
[1]
  Ma(S) MIC: 10 µM
[2]
  Ma(R) MIC: 10 µM
E. coli
  IC50: 7.6 µM
[3]; bloodstream forms
  IC50: 880 ± 200 nM
[4]; epimastigotes
  IC50: 2.1 ± 0.9 µM
[5]; [17]
  IC50: 600 ± 500 nM
[6]; promastigotes
  IC50: 2000 ± 200 nM
[13]
  Less active than 8b/SQ109, L. mexicana: ~ 4 fold
  IC50: 1940 nM and 1900 nM
[7]; [18]
  IC50: 0.53 ± 0.22 µM
[8]; 1:1 Langmuir binding model
  koff: 0.5403 s⁻¹
[8]; [19]
  Kd: 91 µM
[8]; [20]
  Kd: 106 µM
[8]; two-state model
  ka1: 7325 M⁻¹ s⁻¹
  ka2: 0.00968 s⁻¹
  kd1: 0.9488 s⁻¹
  kd2: 0.04246 s⁻¹
[9]
  Tm (main transition): 17.5 °C
  ΔH: 22.6 kJ/mol
  ΔT1/2: 2.2 °C
[9]; heating
  Decrease of Tm compared to DMPC without inhibitor: ~6 °C
[10]
  Tm (main transition): 50.0 °C
  ΔH: 48.1 kJ/mol
  ΔT1/2: 1.1 °C
  Broadening of main transition peak ΔΤ1/2 compared to pure DSPG: 0.2–1.6 °C
  Decrease of Tm compared to DSPG alone: 3–4 °C
[14]
  HepG2 % viability @ 20 μM: 100%
U2OS host cells
  CC50: 1600 ± 100 nM
